Values of other authors, collected in article PMC12238501 (Scientific Reports, 2025).

Question: Which Solubility in water does the source give for `Oc1ccc(C=Cc2cc(O)cc(O)c2)cc1` [Resveratrol, 3,4’,5-trihydroxystilbene] here?
Answer: The Solubility in water was “low solubility in water”.
